Experimental data as given in patent publication US12030878B2 (BRISTOL-MYERS SQUIBB COMPANY, priority 2017, dated 2024).

Assays:
Assay type in all cases: cell-based
human TLR7 = molecular target: T1, human TLR7 (Homo sapiens, UniProt Q9NYK1); experiment: TLR7 inhibition reporter assay (HEK-Blue SEAP); conditions: HEK-Blue cells overexpressing human TLR7, stimulated with gardiquimod 7.5 μM, 22 hour incubation
T1 construct: host or cells: HEK-Blue cells
T1 sequence (Q9NYK1 27-1049): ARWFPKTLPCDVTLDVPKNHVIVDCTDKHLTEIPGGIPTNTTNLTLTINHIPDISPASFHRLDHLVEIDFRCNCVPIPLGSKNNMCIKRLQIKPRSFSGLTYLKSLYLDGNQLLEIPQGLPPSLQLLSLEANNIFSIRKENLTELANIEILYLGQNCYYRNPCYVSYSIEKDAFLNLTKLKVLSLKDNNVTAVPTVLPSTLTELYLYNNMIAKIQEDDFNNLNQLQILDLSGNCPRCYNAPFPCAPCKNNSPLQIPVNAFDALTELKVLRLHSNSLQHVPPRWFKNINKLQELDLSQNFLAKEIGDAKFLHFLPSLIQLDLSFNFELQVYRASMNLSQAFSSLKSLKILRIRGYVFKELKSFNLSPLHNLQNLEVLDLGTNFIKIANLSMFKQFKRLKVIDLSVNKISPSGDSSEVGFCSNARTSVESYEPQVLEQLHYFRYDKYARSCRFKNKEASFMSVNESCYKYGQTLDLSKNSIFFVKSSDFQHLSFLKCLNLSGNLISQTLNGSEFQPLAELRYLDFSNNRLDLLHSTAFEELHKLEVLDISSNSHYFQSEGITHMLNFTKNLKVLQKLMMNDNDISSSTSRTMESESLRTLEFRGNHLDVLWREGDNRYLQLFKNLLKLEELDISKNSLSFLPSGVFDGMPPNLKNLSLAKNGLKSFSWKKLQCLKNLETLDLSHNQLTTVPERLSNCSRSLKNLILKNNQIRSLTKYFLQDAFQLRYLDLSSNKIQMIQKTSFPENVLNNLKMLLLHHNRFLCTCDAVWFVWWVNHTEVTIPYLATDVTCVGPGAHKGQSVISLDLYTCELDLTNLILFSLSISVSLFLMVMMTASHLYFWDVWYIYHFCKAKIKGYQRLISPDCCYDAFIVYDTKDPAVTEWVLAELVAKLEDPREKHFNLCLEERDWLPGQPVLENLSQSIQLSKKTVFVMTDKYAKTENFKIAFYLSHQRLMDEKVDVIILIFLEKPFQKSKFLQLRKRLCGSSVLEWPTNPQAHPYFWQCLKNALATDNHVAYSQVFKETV
Procedure: (§1) TLR7/8/9 Inhibition Reporter Assays
(§2) HEK-Blue™-cells (Invivogen) overexpressing human TLR7, TLR8 or TLR9 receptors were used for screening inhibitors of these receptors using an inducible SEAP (secreted embryonic alkaline phosphatase) reporter gene under the control of the IFN-β minimal promoter fused to five NF-κB and AP-1-binding sites. Briefly, cells are seeded into Greiner 384 well plates (15000 cells per well for TLR7, 20.000 for TLR8 and 25,000 for TLR9) and then treated with test compounds in DMSO to yield a final dose response concentration range of 0.05 nM-50 μM. After a 30 minute compound pre-treatment at room temperature, the cells are then stimulated with a TLR7 ligand (gardiquimod at a final concentration of 7.5 μM), TLR8 ligand (R848 at a final concentration of 15.9 μM) or TLR9 ligand (ODN2006 at a final concentration of 5 nM) to activate NF-κB and AP-1 which induce the production of SEAP. After a 22 hour incubation at 37° C., 5% CO2, SEAP levels are determined with the addition of HEK-Blue™ Detection reagent (Invivogen), a cell culture medium that allows for detection of SEAP, according to manufacturer's specifications. The percent inhibition is determined as the % reduction in the HEK-Blue signal present in wells treated with agonist plus DMSO alone compared to wells treated with a known inhibitor.

human TLR8 = molecular target: T2, human TLR8 (Homo sapiens, UniProt Q9NR97); experiment: TLR8 inhibition reporter assay (HEK-Blue SEAP); conditions: HEK-Blue cells overexpressing human TLR8, stimulated with R848 15.9 μM, 22 hour incubation
T2 construct: host or cells: HEK-Blue cells
T2 sequence (Q9NR97 27-1041): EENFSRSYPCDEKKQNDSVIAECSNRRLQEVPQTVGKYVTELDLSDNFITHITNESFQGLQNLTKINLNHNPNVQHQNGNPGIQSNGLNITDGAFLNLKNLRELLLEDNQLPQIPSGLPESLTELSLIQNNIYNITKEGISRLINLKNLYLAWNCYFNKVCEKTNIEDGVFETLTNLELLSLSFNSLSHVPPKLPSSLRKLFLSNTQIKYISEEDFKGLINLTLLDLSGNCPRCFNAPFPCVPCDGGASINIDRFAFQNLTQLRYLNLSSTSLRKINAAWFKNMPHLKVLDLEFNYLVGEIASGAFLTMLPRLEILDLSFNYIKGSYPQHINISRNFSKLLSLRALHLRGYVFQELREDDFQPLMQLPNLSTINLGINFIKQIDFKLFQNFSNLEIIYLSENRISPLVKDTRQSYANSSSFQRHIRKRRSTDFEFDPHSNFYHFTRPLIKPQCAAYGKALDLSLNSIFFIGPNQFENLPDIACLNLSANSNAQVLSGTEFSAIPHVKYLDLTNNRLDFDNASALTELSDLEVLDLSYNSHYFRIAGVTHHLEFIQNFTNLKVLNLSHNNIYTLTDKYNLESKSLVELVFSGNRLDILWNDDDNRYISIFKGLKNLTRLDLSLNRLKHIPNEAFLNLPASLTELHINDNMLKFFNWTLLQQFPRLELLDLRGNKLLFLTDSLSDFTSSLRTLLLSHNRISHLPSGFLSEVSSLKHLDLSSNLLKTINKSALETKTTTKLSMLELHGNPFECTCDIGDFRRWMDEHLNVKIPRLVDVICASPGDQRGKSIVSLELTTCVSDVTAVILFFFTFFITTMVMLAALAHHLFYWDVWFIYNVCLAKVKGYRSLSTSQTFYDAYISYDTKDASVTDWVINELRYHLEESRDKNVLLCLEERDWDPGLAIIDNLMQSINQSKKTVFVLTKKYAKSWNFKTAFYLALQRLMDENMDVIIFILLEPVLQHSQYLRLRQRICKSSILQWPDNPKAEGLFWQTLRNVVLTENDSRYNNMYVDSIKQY
Procedure: as §1, §2

human TLR9 = molecular target: T3, human TLR9 (Homo sapiens, UniProt Q9NR96); experiment: TLR9 inhibition reporter assay (HEK-Blue SEAP); conditions: HEK-Blue cells overexpressing human TLR9, stimulated with ODN2006 5 nM, 22 hour incubation
T3 construct: host or cells: HEK-Blue cells
T3 sequence (Q9NR96 26-1032): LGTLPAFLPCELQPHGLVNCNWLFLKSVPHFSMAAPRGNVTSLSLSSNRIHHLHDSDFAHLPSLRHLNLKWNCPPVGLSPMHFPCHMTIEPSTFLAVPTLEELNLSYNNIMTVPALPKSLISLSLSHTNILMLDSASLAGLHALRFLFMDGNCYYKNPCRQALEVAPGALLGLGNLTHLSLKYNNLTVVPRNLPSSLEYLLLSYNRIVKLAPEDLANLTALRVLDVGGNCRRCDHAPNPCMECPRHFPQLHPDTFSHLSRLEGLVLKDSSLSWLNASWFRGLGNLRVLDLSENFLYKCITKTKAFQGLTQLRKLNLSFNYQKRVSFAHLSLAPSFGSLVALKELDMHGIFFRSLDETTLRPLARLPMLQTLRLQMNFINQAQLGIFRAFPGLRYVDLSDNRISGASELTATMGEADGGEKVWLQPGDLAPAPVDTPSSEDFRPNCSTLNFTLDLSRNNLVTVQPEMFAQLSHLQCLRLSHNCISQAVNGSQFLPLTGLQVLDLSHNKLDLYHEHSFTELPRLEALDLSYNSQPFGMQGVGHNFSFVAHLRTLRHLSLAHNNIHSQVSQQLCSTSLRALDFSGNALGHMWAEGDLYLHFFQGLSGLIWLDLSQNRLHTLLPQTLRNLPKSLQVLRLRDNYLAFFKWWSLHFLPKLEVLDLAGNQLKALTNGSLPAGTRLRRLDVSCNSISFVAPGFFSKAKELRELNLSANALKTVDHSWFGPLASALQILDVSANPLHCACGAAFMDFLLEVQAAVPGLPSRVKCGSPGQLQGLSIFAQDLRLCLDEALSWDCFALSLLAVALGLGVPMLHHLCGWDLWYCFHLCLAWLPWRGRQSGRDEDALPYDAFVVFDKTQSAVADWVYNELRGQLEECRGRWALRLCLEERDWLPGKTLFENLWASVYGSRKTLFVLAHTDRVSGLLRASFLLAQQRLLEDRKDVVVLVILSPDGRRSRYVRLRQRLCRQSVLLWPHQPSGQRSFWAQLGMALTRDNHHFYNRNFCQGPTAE
Procedure: as §1, §2

SMILES	IC50 (human TLR7) [nM]	IC50 (human TLR8) [nM]	IC50 (human TLR9) [nM]
Cc1cc(-c2[nH]c3ccc(OCC4CCN(CC(=O)N(C)C)CC4)cc3c2C(C)C)cn(C)c1=O [Example 81, 2-(4-(((2-(1,5-dimethyl-6-oxo-1,6-dihydropyridin-3-yl)-3-isopropyl-1H-indol-5-yl)oxy)methyl)piperidin-1-yl)-N,N-dimethylacetamide]	26.1	9.7	24900
COc1ccc(-c2[nH]c3ccc(OCC(=O)N(C)C4CCCNC4)cc3c2C(C)C)cc1OC (stereo not drawn) [Example 127, 2-((2-(3,4-dimethoxyphenyl)-3-isopropyl-1H-indol-5-yl)oxy)-N-methyl-N-(piperidin-3-yl)acetamide]	35.2	15.3	858
Cc1cc(-c2[nH]c3ccc(OC4CCN(CC(C)C)CC4)cc3c2C(C)C)cn(C)c1=O [Example 76, 5-(5-((1-isobutylpiperidin-4-yl)oxy)-3-isopropyl-1H-indol-2-yl)-1,3-dimethylpyridin-2(1H)-one]	2.8	0.8	5570
Cc1cc(-c2[nH]c3ccc(O[C@H]4CCCN(C)C4)cc3c2C(C)C)cn2ncnc12 [Example 38, (S)-6-(3-isopropyl-5-((1-methylpiperidin-3-yl)oxy)-1H-indol-2-yl)-8-methyl-[1,2,4]triazolo[1,5-a]pyridine]	3.6	27	3640
Cc1cc(-c2[nH]c3ccc(OC4CCCNC4)cc3c2C(C)C)ccn1 (stereo not drawn) [Example 177, 3-isopropyl-2-(2-methylpyridin-4-yl)-5-(piperidin-3-yloxy)-1H-indole]	27.8	33.4	1290
Cc1cc(-c2[nH]c3ccc(OC4CCN(C(C)C)CC4)cc3c2C(C)C)cc(C)n1 [Example 31, 2-(2,6-dimethylpyridin-4-yl)-3-isopropyl-5-((1-isopropylpiperidin-4-yl)oxy)-1H-indole]	2.9	1	530
COc1ccc(-c2[nH]c3ccc(OCC(=O)N4CCCC(CCN)C4)cc3c2C(C)C)cc1OC (stereo not drawn) [Example 122, 1-(3-(2-aminoethyl)piperidin-1-yl)-2-((2-(3,4-dimethoxyphenyl)-3-isopropyl-1H-indol-5-yl)oxy)ethan-1-one]	328	113	1010
Cc1cc(-c2[nH]c3ccc(OC4CCC(OC5CCNCC5)CC4)cc3c2C(C)C)ccn1 (stereo not drawn) [Example 185, 3-isopropyl-2-(2-methylpyridin-4-yl)-5-((4-(piperidin-4-yloxy)cyclohexyl)oxy)-1H-indole]	50.2	22.6	2990
Cc1cc(-c2[nH]c3ccc(OCC4CCNCC4)cc3c2C(C)C)cn(C)c1=O [Example 7, 5-(3-isopropyl-5-(piperidin-4-ylmethoxy)-1H-indol-2-yl)-1,3-dimethylpyridin-2(1H)-one]	2.1	2.6	797
COc1ccc(-c2[nH]c3ccc(OCC(=O)N4CCNCC4)cc3c2C(C)C)cc1OC [Example 129, 2-((2-(3,4-dimethoxyphenyl)-3-isopropyl-1H-indol-5-yl)oxy)-1-(piperazin-1-yl)ethan-1-one]	57.9	45.1	2610
Cc1cc(-c2[nH]c3ccc(O[C@H]4CCCNC4)cc3c2C(C)C)cn2ncnc12 [Example 9, (S)-6-(3-isopropyl-5-(piperidin-3-yloxy)-1H-indol-2-yl)-8-methyl-[1,2,4]triazolo[1,5-a]pyridine]	0.8	10.6	2270
COc1ccc(-c2[nH]c3ccc(OCC(=O)N4CCC[C@H](N)C4)cc3c2C(C)C)cc1OC [Example 120, (S)-1-(3-aminopiperidin-1-yl)-2-((2-(3,4-dimethoxyphenyl)-3-isopropyl-1H-indol-5-yl)oxy)ethan-1-one]	95.5	46.9	2660
Cc1c(-c2[nH]c3ccc(OCC4CCN(C)CC4)cc3c2C(C)C)cn2cnnc2c1C [Example 54, 6-(3-isopropyl-5-((1-methylpiperidin-4-yl)methoxy)-1H-indol-2-yl)-7,8-dimethyl-[1,2,4]triazolo[4,3-a]pyridine]	1.5	3.1	1250
